{
  "source": "patent US20030199671A1",
  "about": "“Binding molecules for Fc-region polypeptides” (priority 2001, published 2003)",
  "key": {"human IgG2": {"molecular_target": "T1, human IgG2 (Homo sapiens, UniProt P01859)", "T1 construct": "all human subtypes derived from myeloma patients; purchased Calbiochem 400122; host or cells: myeloma patients", "assay_type": "binding", "details": "Table 9; immobilized peptide, 5.0 mg/ml resin load", "method_in_brief": "(§1)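 Read-out is A280 of unbound IgG (1.4 mg/ml extinction coefficient), with percent bound derived against non-filtered or negative controls. Targets were incubated with immobilized peptides in PBST or TBST for 1-1.5 h at room temperature. Hydrolyzed Sepharose and immobilized Protein A serve as negative and positive controls.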"}, "bovine IgG": {"system": "bovine IgG", "assay_type": "binding", "details": "Table 11; unfractionated IgG", "method_in_brief": "(§2)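 Static batch binding on immobilized peptide resin: unfractionated IgGs in PBST (pH 7.2) or TBST (pH 7.5), 1–1.5 h shaking at room temperature. Unbound IgG quantified by A280 against a buffer blank; percent bound from non-filtered or negative-control values. Elution at pH 8.5 bicarbonate and/or pH 4.0 citrate, expressed as percent of load.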"}, "human IgG": {"system": "human IgG", "assay_type": "binding", "details": "Table 11; unfractionated IgG", "method_in_brief": "as §2"}, "mouse IgG": {"system": "mouse IgG", "assay_type": "binding", "details": "Table 11; unfractionated IgG", "method_in_brief": "as §2"}, "human IgG1": {"molecular_target": "T2, human IgG1 (Homo sapiens, UniProt P01857)", "T2 construct": "all human subtypes derived from myeloma patients; purchased Calbiochem 400120; host or cells: myeloma patients", "assay_type": "binding", "details": "Table 9; immobilized peptide, 5.0 mg/ml resin load", "method_in_brief": "(§3)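 Steps: dilute IgG in PBST or TBST; incubate with immobilized peptide 1-1.5 h, RT; collect unbound by centrifugation; measure A280; wash three times; elute with 0.1 M sodium bicarbonate pH 8.5 and/or 0.1 M sodium citrate pH 4.0 for 30-60 min and quantitate.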"}, "goat IgG": {"system": "goat IgG", "assay_type": "binding", "details": "Table 11; unfractionated IgG", "method_in_brief": "as §2"}, "human plasma IgG2": {"molecular_target": "T3, human plasma IgG2 (Homo sapiens, UniProt P01859)", "T3 construct": "the individual human plasma IgG isoforms: IgG1, IgG2, IgG3, or IgG4; purchased Calbiochem; host or cells: human plasma", "assay": "Fluorescence anisotropy binding, fluorescein-labeled peptide", "description": "(§4) All measurements were performed in 384 well microplates with 20 nM fluorescein-labeled peptide and various concentrations of the IgG isoform in a volume of between 10 and 20 μl using a Tecan Polarion fluorescence polarization plate reader. All binding buffers included 0.01% (v/v) Tween 20 to prevent peptide adsorption to the microplate. The binding mixture was equilibrated for 10 minutes in the microplate at 30° C. prior to performing the measurement.\n(§5) Peptides were synthesized, fluorescein-labeled and HPLC purified as described above. Binding studies were performed using either a mixture of human plasma IgG isoforms (the Fc protein) or the individual human plasma IgG isoforms: IgG1, IgG2, IgG3, or IgG4.\n(§6) Measurements were performed in 384-well microplates with 2 nM fluorescein-labeled peptide and a varied concentration of the IgG isoform target in a volume of 10 μl using a Tecan Polarion fluorescence polarization plate reader. The Fc binding buffer was 50 mM Tris-HCl, 200 mM NaCl, pH 8.0, 0.01% Tween 20. The IgG binding buffer was PBS with 0.01% Tween 20. The binding mixtures were equilibrated for 10 minutes in the microplate at 30° C. prior to performing the measurements."}, "human plasma IgG1": {"molecular_target": "T4, human plasma IgG1 (Homo sapiens, UniProt P01857)", "T4 construct": "the individual human plasma IgG isoforms: IgG1, IgG2, IgG3, or IgG4; purchased Calbiochem; host or cells: human plasma", "assay": "Fluorescence anisotropy binding, fluorescein-labeled peptide", "description": "as §4, §5, §6"}, "[1]": {"molecular_target": "Fc (mixture of human plasma IgG isoforms)", "assay": "Fluorescence anisotropy binding, fluorescein-labeled peptide", "details": "pH 8.0, 0.05 M Tris-HCl, 0.2 M NaCl", "description": "(§7) Peptides were synthesized by BACHEM Bioscience, Inc., (King of Prussia, Pa.), fluorescein labeled and purified by HPLC. Binding studies were performed using either a mixture of human plasma IgG isoforms (the Fc target) or the individual human plasma IgG isoforms: IgG1, IgG2, IgG3, or IgG4. All Fc target proteins were obtained from Calbiochem.\nas §4, §5, §6"}, "human plasma IgG4": {"molecular_target": "T5, human plasma IgG4 (Homo sapiens, UniProt P01861)", "T5 construct": "the individual human plasma IgG isoforms: IgG1, IgG2, IgG3, or IgG4; purchased Calbiochem; host or cells: human plasma", "assay": "Fluorescence anisotropy binding, fluorescein-labeled peptide", "description": "as §7, §4, §5, §6"}, "human plasma IgG3": {"molecular_target": "T6, human plasma IgG3 (Homo sapiens, UniProt P01860)", "T6 construct": "the individual human plasma IgG isoforms: IgG1, IgG2, IgG3, or IgG4; purchased Calbiochem; host or cells: human plasma", "assay": "Fluorescence anisotropy binding, fluorescein-labeled peptide", "description": "as §7, §4, §5, §6"}, "IgG3 [2]": {"molecular_target": "T7, IgG3 (Homo sapiens, UniProt P01860)", "assay": "Competition between synthetic peptides and Protein A for Fc binding", "design": "the individual human plasma IgG isoforms: IgG1, IgG2, IgG3, or IgG4; purchased Calbiochem; host or cells: human plasma; key: NB: no detected binding.; ?: partial decrease in anisotropy with added competitor", "details": "5 mg/ml protein A", "description": "(§8) Cross-competition studies between peptides were performed using 20 nM fluorescein-labeled peptide and 1-2 μM IgG1, IgG2, IgG3, or IgG4 in the presence and absence of a maximum of 100 μM unlabeled peptide or 5 mg/ml protein A.\n(§9) This is consistent with the fact that Protein A is known not to bind human IgG3."}, "IgG4 [3]": {"molecular_target": "T8, IgG4 (Homo sapiens, UniProt P01861)", "assay": "Competition between synthetic peptides and Protein A for Fc binding", "design": "the individual human plasma IgG isoforms: IgG1, IgG2, IgG3, or IgG4; purchased Calbiochem; host or cells: human plasma; key: NB: no detected binding.; ?: partial decrease in anisotropy with added competitor", "details": "5 mg/ml protein A", "description": "as §8, §9"}, "IgG3 [4]": {"molecular_target": "T7, IgG3", "assay_type": "binding", "design": "all human subtypes derived from myeloma patients; purchased Calbiochem 400124; host or cells: myeloma patients", "details": "Table 9; immobilized peptide, 5.0 mg/ml resin load", "method_in_brief": "as §3"}, "IgG4 [5]": {"molecular_target": "T8, IgG4", "assay_type": "binding", "design": "all human subtypes derived from myeloma patients; purchased Calbiochem 400126; host or cells: myeloma patients", "details": "Table 9; immobilized peptide, 5.0 mg/ml resin load", "method_in_brief": "as §1"}, "[6]": {"details": "pH 9.3, 0.01 M sodium bicarbonate"}},
  "data": [
    {"molecule": "CC(=O)N[C@@H](C)C(=O)NCC(=O)N[C@@H](Cc1ccc(O)cc1)C(=O)N[C@@H](Cc1ccc(O)cc1)C(=O)N[C@@H](Cc1c[nH]c2ccccc12)C(=O)N[C@H]1CSSC[C@@H](C(=O)N2CCC[C@H]2C(=O)N[C@@H](CC(=O)O)C(=O)N[C@@H](CCC(N)=O)C(=O)NCC(=O)N[C@H](C(=O)N2CCC[C@H]2C(=O)NCC(=O)N2CCC[C@H]2C(=O)N[C@@H](CCC(=O)O)C(=O)NCC(=O)NCC(=O)NCC(=O)N[C@@H](CCCCN)C(N)=O)[C@@H](C)O)NC(=O)[C@H](CC(C)C)NC(=O)CNC(=O)[C@H](Cc2c[nH]c3ccccc23)NC(=O)[C@H](Cc2ccc(O)cc2)NC(=O)[C@H](CC(N)=O)NC1=O", "note": "[DX254]", "values": [
      {"measurement": "% IgG Capture - Batch Binding, Human IgG2", "setting": "human IgG2", "result": 16, "unit": "%"},
      {"measurement": "% IgG Capture - Batch Binding, Bovine IgG", "setting": "bovine IgG", "result": 0, "unit": "%"},
      {"measurement": "% IgG Capture - Batch Binding, Human IgG", "setting": "human IgG", "result": 16, "unit": "%"},
      {"measurement": "% IgG Capture - Batch Binding, Mouse IgG", "setting": "mouse IgG", "result": 2, "unit": "%"},
      {"measurement": "% IgG Capture - Batch Binding, Human IgG1", "setting": "human IgG1", "result": 28, "unit": "%"},
      {"measurement": "% IgG Capture - Batch Binding, Goat IgG", "setting": "goat IgG", "result": 0, "unit": "%"},
      {"measurement": "Kd", "setting": "human plasma IgG2; pH 5.7, 0.01 M Tris-acetate", "result": "> 1", "unit": "µM"},
      {"measurement": "Kd", "setting": "human plasma IgG2; pH 7.4, 0.01 M Tris-HCl", "result": "2 ± 0.7", "unit": "µM"},
      {"measurement": "Kd", "setting": "human plasma IgG2; pH 7.4, PBS, […] NaCl", "result": "1.1 ± 0.3", "unit": "µM"},
      {"measurement": "Kd", "setting": "human plasma IgG2; [6]", "result": "2 ± 2.7", "unit": "µM"},
      {"measurement": "Kd", "setting": "human plasma IgG1; pH 5.7, 0.01 M Tris-acetate, 0 M NaCl", "result": "< 0.1", "unit": "µM"},
      {"measurement": "Kd", "setting": "human plasma IgG1; pH 7.4, 0.01 M Tris-HCl", "result": "< 2", "unit": "µM"},
      {"measurement": "Kd", "setting": "human plasma IgG1; pH 7.4, PBS, […] NaCl", "result": "0.4 ± 0.2", "unit": "µM"},
      {"measurement": "Kd", "setting": "human plasma IgG1; [6]", "result": "0.4 ± 0.4", "unit": "µM"},
      {"measurement": "Kd", "setting": "[1]", "result": "1.6 ± 0.6", "unit": "µM"},
      {"measurement": "Kd", "setting": "human plasma IgG4; pH 5.7, 0.01 M Tris-acetate", "result": "> 10", "unit": "µM"},
      {"measurement": "Kd", "setting": "human plasma IgG4; pH 7.4, PBS, […] NaCl", "result": "> 10", "unit": "µM"},
      {"measurement": "Kd", "setting": "human plasma IgG4; [6]", "result": "> 10", "unit": "µM"},
      {"measurement": "Kd", "setting": "human plasma IgG3; pH 5.7, 0.01 M Tris-acetate", "result": "0.3 ± 0.3", "unit": "µM"},
      {"measurement": "Kd", "setting": "human plasma IgG3; pH 7.4, 0.01 M Tris-HCl", "result": "> 10", "unit": "µM"},
      {"measurement": "Kd", "setting": "human plasma IgG3; [6]", "result": "> 10", "unit": "µM"},
      {"measurement": "Competition between labeled peptide and Protein A, IgG3", "setting": "IgG3 [2]", "result": "?"},
      {"measurement": "Competition between labeled peptide and Protein A, IgG4", "setting": "IgG4 [3]", "result": "NB"},
      {"measurement": "% IgG Capture - Batch Binding, Human IgG3", "setting": "IgG3 [4]", "result": 36, "unit": "%"},
      {"measurement": "% IgG Capture - Batch Binding, Human IgG4", "setting": "IgG4 [5]", "result": 6, "unit": "%"}
    ]}
  ]
}
